{"source": "patent US9776962B2", "about": "“Aromatic compounds with GPR40 agonistic activity” (TAKEDA PHARMACEUTICAL COMPANY LIMITED, priority 2013, dated 2017)", "molecular_target": "T1, human GPR40 (Homo sapiens, UniProt O14842)", "T1 construct": "expressed in transfected cells", "T1 sequence (O14842 whole entry)": "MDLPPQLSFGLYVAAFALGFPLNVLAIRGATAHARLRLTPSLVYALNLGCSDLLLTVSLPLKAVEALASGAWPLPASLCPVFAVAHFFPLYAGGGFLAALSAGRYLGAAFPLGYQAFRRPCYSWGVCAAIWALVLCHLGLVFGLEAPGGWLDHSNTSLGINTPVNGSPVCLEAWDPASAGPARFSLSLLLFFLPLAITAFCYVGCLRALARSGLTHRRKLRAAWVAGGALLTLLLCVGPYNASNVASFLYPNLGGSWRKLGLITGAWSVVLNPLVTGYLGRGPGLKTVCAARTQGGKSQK", "test": "Evaluation of human GPR40 agonist activity with increase in intracellular Ca2+ concentration as an index (FLIPR)", "assay_type": "cell-based", "settings": "test compound 1 μM; CHO(dhfr−) cells stably expressing human GPR40; 100% = 10 μM compound of Example 153, 0% = DMSO", "method_in_brief": "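CHO(dhfr−) cells stably expressing full-length human GPR40 were loaded with Ca2+ probe for 1 h at room temperature, then given test compound at 1 μM final. Fluorescence was followed on FLIPR, with activity scaled to a reference agonist at 10 μM (100%) and DMSO (0%).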", "data": [{"smiles": "COc1ccc(C(=O)N(CC(C)(C)C)c2ccccn2)c(N2CCC(COc3cccc(C(CC(=O)O)C4CC4)c3)CC2)n1", "note": "(stereo not shown) [Example 254, 3-cyclopropyl-3-(3-((1-(3-((2,2-dimethylpropyl)(pyridin-2-yl)carbamoyl)-6-methoxypyridin-2-yl)piperidin-4-yl)methoxy)phenyl)propanoic acid]", "values": [{"measurement": "activation at 1 µM", "result": 74, "unit": "%"}]}, {"smiles": "COc1cc(F)c(C(=O)N(CC(C)(C)C)c2cccc(C)n2)c(N2CCC(COc3cc(C(CC(=O)O)C4CC4)ccn3)CC2)c1", "note": "(stereo not shown) [Example 251, 3-cyclopropyl-3-(2-((1-(2-((2,2-dimethylpropyl)(6-methylpyridin-2-yl)carbamoyl)-3-fluoro-5-methoxyphenyl)piperidin-4-yl)methoxy)pyridin-4-yl)propanoic acid]", "values": [{"measurement": "activation at 1 µM", "result": 91, "unit": "%"}]}, {"smiles": "COc1ccc(C(=O)N(CC(C)C)c2cccnc2OC)c(N2CCC(COc3cc(C(CC(=O)O)C4CC4)ccn3)CC2)c1", "note": "(stereo not shown) [Example 136, 3-cyclopropyl-3-(2-((1-(5-methoxy-2-((2-methoxypyridin-3-yl)(2-methylpropyl)carbamoyl)phenyl)piperidin-4-yl)methoxy)pyridin-4-yl)propanoic acid]", "values": [{"measurement": "activation at 1 µM", "result": 95, "unit": "%"}]}, {"smiles": "COc1ccc(C(=O)N(CC(C)(C)C)c2cncc(Cl)n2)c(N2CCC(COc3cc(C(CC(=O)O)C4CC4)ccn3)CC2)c1", "note": "(stereo not shown) [Example 180, 3-(2-((1-(2-((6-chloropyrazin-2-yl)(2,2-dimethylpropyl)carbamoyl)-5-methoxyphenyl)piperidin-4-yl)methoxy)pyridin-4-yl)-3-cyclopropylpropanoic acid]", "values": [{"measurement": "activation at 1 µM", "result": 105, "unit": "%"}]}, {"smiles": "COc1ccc(C(=O)N(CC(C)(C)OCC(F)(F)F)c2ccccn2)c(N2CCC(COc3cc(C(CC(=O)O)C4CC4)ccn3)CC2)c1", "note": "(stereo not shown) [Example 161, 3-cyclopropyl-3-(2-((1-(5-methoxy-2-((2-methyl-2-(2,2,2-trifluoroethoxy)propyl)(pyridin-2-yl)carbamoyl)phenyl)piperidin-4-yl)methoxy)pyridin-4-yl)propanoic acid]", "values": [{"measurement": "activation at 1 µM", "result": 97, "unit": "%"}]}, {"smiles": "COc1ccc(C(=O)N(CC(C)(C)C)c2cccc(C)n2)c(N2CCC(COc3cc(C(CC(=O)O)C4CC4)ccn3)CC2)c1", "note": "(stereo not shown) [Example 110, 3-cyclopropyl-3-(2-((1-(2-((2,2-dimethylpropyl)(6-methylpyridin-2-yl)carbamoyl)-5-methoxyphenyl)piperidin-4-yl)methoxy)pyridin-4-yl)propanoic acid]", "values": [{"measurement": "Activity (human GPR40 agonist activity)", "result": 104, "unit": "%"}]}, {"smiles": "COc1ccc(C(=O)N(CC(F)(F)F)c2cc(C)ccn2)c(N2CCC(COc3cc(C(CC(=O)O)OC)ccn3)CC2)c1", "note": "(stereo not shown) [Example 271, 3-methoxy-3-(2-((1-(5-methoxy-2-((4-methylpyridin-2-yl)(2,2,2-trifluoroethyl)carbamoyl)phenyl)piperidin-4-yl)methoxy)pyridin-4-yl)propanoic acid]", "values": [{"measurement": "activation at 1 µM", "result": 98, "unit": "%"}]}, {"smiles": "COc1ccc(C(=O)N(CC(C)(C)C)c2cncc(C(F)(F)F)c2)c(N2CCC(COc3cc(C(CC(=O)O)C4CC4)ccn3)CC2)c1", "note": "(stereo not shown) [Example 235, 3-cyclopropyl-3-(2-((1-(2-((2,2-dimethylpropyl) (5-(trifluoromethyl)pyridin-3-yl)carbamoyl)-5-methoxyphenyl)piperidin-4-yl)methoxy)pyridin-4-yl)propanoic acid]", "values": [{"measurement": "activation at 1 µM", "result": 91, "unit": "%"}]}, {"smiles": "COc1ccc(C(=O)N(CC(C)C)c2ncccc2C)c(N2CCC(COc3cc(C(CC(=O)O)C4CC4)ccn3)CC2)c1", "note": "(stereo not shown) [Example 150, 3-cyclopropyl-3-(2-((1-(5-methoxy-2-((2-methylpropyl)(3-methylpyridin-2-yl)carbamoyl)phenyl)piperidin-4-yl)methoxy)pyridin-4-yl)propanoic acid]", "values": [{"measurement": "activation at 1 µM", "result": 84, "unit": "%"}]}, {"smiles": "COc1ccc(C(=O)N(CC(C)(C)C#N)c2ccccn2)c(N2CCC(COc3cc(C(CC(=O)O)C4CC4)ccn3)CC2)c1", "note": "(stereo not shown) [Example 134, 3-(2-((1-(2-((2-cyano-2-methylpropyl)(pyridin-2-yl)carbamoyl)-5-methoxyphenyl)piperidin-4-yl)methoxy)pyridin-4-yl)-3-cyclopropylpropanoic acid]", "values": [{"measurement": "activation at 1 µM", "result": 84, "unit": "%"}]}, {"smiles": "COc1ccc(C(=O)N(CC2CC2)c2nccc(C(F)(F)F)n2)c(N2CCC(COc3cc(C(CC(=O)O)C4CC4)ccn3)CC2)c1", "note": "(stereo not shown) [Example 237, 3-cyclopropyl-3-(2-((1-(2-((cyclopropylmethyl) (4-(trifluoromethyl)-pyrimidin-2-yl)carbamoyl)-5-methoxyphenyl)piperidin-4-yl)methoxy)pyridin-4-yl)propanoic acid]", "values": [{"measurement": "activation at 1 µM", "result": 98, "unit": "%"}]}, {"smiles": "COc1ccc(C(=O)N(CC2CC2)c2cc(C)cc(C)n2)c(N2CCC(COc3cc(C(CC(=O)O)C4CC4)ccn3)CC2)c1", "note": "(stereo not shown) [Example 244, 3-cyclopropyl-3-(2-((1-(2-((cyclopropylmethyl)(4,6-dimethylpyridin-2-yl)carbamoyl)-5-methoxyphenyl)piperidin-4-yl)methoxy)pyridin-4-yl)propanoic acid]", "values": [{"measurement": "activation at 1 µM", "result": 99, "unit": "%"}]}, {"smiles": "COc1ccc(C(=O)N2CCOCC2Cc2ccccc2)c(N2CCC(COc3cc(C(CC(=O)O)C4CC4)ccn3)CC2)c1", "note": "(stereo not shown) [Example 201, 3-(2-((1-(2-((3-benzylmorpholin-4-yl)carbonyl)-5-methoxyphenyl)piperidin-4-yl)methoxy)pyridin-4-yl)-3-cyclopropylpropanoic acid]", "values": [{"measurement": "activation at 1 µM", "result": 92, "unit": "%"}]}, {"smiles": "CC(C)(C)CN(C(=O)c1ccc(Cl)nc1N1CCC(COc2cccc(C(CC(=O)O)C3CC3)c2)CC1)c1ccccn1", "note": "(stereo not shown) [Example 59, 3-(3-((1-(6-chloro-3-((2,2-dimethylpropyl)(pyridin-2-yl)carbamoyl)pyridin-2-yl)piperidin-4-yl)methoxy)phenyl)-3-cyclopropylpropanoic acid]", "values": [{"measurement": "activation at 1 µM", "result": 73, "unit": "%"}]}, {"smiles": "Cc1cccc(N(CC(C)(C)C)C(=O)c2c(F)cc(Cl)cc2N2CCC(COc3cc(C(CC(=O)O)C4CC4)ccn3)CC2)n1", "note": "(stereo not shown) [Example 265, 3-(2-((1-(5-chloro-2-((2,2-dimethylpropyl)(6-methylpyridin-2-yl)carbamoyl)-3-fluorophenyl)piperidin-4-yl)methoxy)pyridin-4-yl)-3-cyclopropylpropanoic acid]", "values": [{"measurement": "activation at 1 µM", "result": 85, "unit": "%"}]}, {"smiles": "COc1ccc(C(=O)N(CC(F)(F)F)c2nccc(C)n2)c(N2CCC(COc3cc(C(CC(=O)O)C4CC4)ccn3)CC2)c1", "note": "(stereo not shown) [Example 169, 3-cyclopropyl-3-(2-((1-(5-methoxy-2-((4-methylpyrimidin-2-yl)(2,2,2-trifluoroethyl)carbamoyl)phenyl)piperidin-4-yl)methoxy)pyridin-4-yl)propanoic acid]", "values": [{"measurement": "activation at 1 µM", "result": 106, "unit": "%"}]}, {"smiles": "COc1ccc(C(=O)N(CC2CCCCC2)c2ccccn2)c(N2CCC(COc3cc(C(CC(=O)O)C4CC4)ccn3)CC2)c1", "note": "(stereo not shown) [Example 195, 3-(2-((1-(2-((cyclohexylmethyl)(pyridin-2-yl)carbamoyl)-5-methoxyphenyl)piperidin-4-yl)methoxy)pyridin-4-yl)-3-cyclopropylpropanoic acid]", "values": [{"measurement": "activation at 1 µM", "result": 98, "unit": "%"}]}, {"smiles": "COc1ccc(C(=O)N(CC2CCC2)c2ccccn2)c(N2CCC(COc3cc(C(CC(=O)O)C4CC4)ccn3)CC2)c1", "note": "(stereo not shown) [Example 118, 3-(2-((1-(2-((cyclobutylmethyl)(pyridin-2-yl)carbamoyl)-5-methoxyphenyl)piperidin-4-yl)methoxy)pyridin-4-yl)-3-cyclopropylpropanoic acid]", "values": [{"measurement": "activation at 1 µM", "result": 103, "unit": "%"}]}, {"smiles": "COc1ccc(C(=O)N(c2ccccn2)C2CCC2)c(N2CCC(COc3cc(C(CC(=O)O)C4CC4)ccn3)CC2)c1", "note": "(stereo not shown) [Example 151, 3-(2-((1-(2-(cyclobutyl(pyridin-2-yl)carbamoyl)-5-methoxyphenyl)piperidin-4-yl)methoxy)pyridin-4-yl)-3-cyclopropylpropanoic acid]", "values": [{"measurement": "activation at 1 µM", "result": 87, "unit": "%"}]}, {"smiles": "COc1ccc(C(=O)N(Cc2ccccc2)c2ccccn2)c(N2CCC(COc3cc(C(CC(=O)O)C4CC4)ccn3)CC2)c1", "note": "(stereo not shown) [Example 197, 3-(2-((1-(2-(benzyl(pyridin-2-yl)carbamoyl)-5-methoxyphenyl)piperidin-4-yl)methoxy)pyridin-4-yl)-3-cyclopropylpropanoic acid]", "values": [{"measurement": "activation at 1 µM", "result": 103, "unit": "%"}]}, {"smiles": "COc1ccc(C(=O)N(CC(C)(C)C)c2cccc(C)n2)c(N2CCC(COc3cc(C(CC(=O)O)C4CC4)ccn3)CC2)c1F", "note": "(stereo not shown) [Example 252, 3-cyclopropyl-3-(2-((1-(6-((2,2-dimethylpropyl)(6-methylpyridin-2-yl)carbamoyl)-2-fluoro-3-methoxyphenyl)piperidin-4-yl)methoxy)pyridin-4-yl)propanoic acid]", "values": [{"measurement": "activation at 1 µM", "result": 87, "unit": "%"}]}, {"smiles": "COc1cc(N2CCC(COc3cc(C(CC(=O)O)C4CC4)ccn3)CC2)c(C(=O)N(CC(C)(C)C)c2cc(C)ncn2)cn1", "note": "(stereo not shown) [Example 257, 3-cyclopropyl-3-(2-((1-(5-((2,2-dimethylpropyl)(6-methylpyrimidin-4-yl)carbamoyl)-2-methoxypyridin-4-yl)piperidin-4-yl)methoxy)pyridin-4-yl)propanoic acid]", "values": [{"measurement": "activation at 1 µM", "result": 98, "unit": "%"}]}, {"smiles": "COc1ccc(C(=O)N(CC(C)C)c2ccc(C)cn2)c(N2CCC(COc3cc(C(CC(=O)O)C4CC4)ccn3)CC2)c1", "note": "(stereo not shown) [Example 115, 3-cyclopropyl-3-(2-((1-(5-methoxy-2-((2-methylpropyl)(5-methylpyridin-2-yl)carbamoyl)phenyl)piperidin-4-yl)methoxy)pyridin-4-yl)propanoic acid]", "values": [{"measurement": "activation at 1 µM", "result": 96, "unit": "%"}]}, {"smiles": "COc1ccc(C(=O)N(CC2CC2)c2ccccn2)c(N2CCC(COc3cc(C(CC(=O)O)C4CC4)ccn3)CC2)c1", "note": "(single isomer, unassigned) [Example 142, 3-cyclopropyl-3-(2-((1-(2-((cyclopropylmethyl)(pyridin-2-yl)carbamoyl)-5-methoxyphenyl)piperidin-4-yl)methoxy)pyridin-4-yl)propanoic acid]", "values": [{"measurement": "Activity (human GPR40 agonist activity)", "result": 97, "unit": "%"}]}, {"smiles": "COc1ccc(C(=O)N(CC(C)(C)C)C2CC2)c(N2CCC(COc3cc(C(CC(=O)O)C4CC4)ccn3)CC2)c1", "note": "(stereo not shown) [Example 192, 3-cyclopropyl-3-(2-((1-(2-(cyclopropyl(2,2-dimethylpropyl)carbamoyl)-5-methoxyphenyl)piperidin-4-yl)methoxy)pyridin-4-yl)propanoic acid]", "values": [{"measurement": "activation at 1 µM", "result": 90, "unit": "%"}]}]}
